Laboratory results published in the NIST ThermoML archive (doi:10.1021/acs.jced.5b00105).

Test: xn = mol fraction of the nth substance listed
Conditions: for surface tension liquid-gas: Drop volume; for viscosity / mass density: 100 kPa, Liquid; for viscosity: Concentric cylinders viscometry; for mass density: Vibrating tube method

CC1CCCCC1 [methylcyclohexane] + CC(C)CC(C)(C)C
Conditions | mass density [kg/m3] | surface tension liquid-gas [mN/m] | viscosity [mPa·s]
293.15 K, x1 = 0.0999 | – | 19.34 | –
293.15 K, x1 = 0.1012 | 698.32 | – | 0.532
293.15 K, x1 = 0.1999 | – | 19.77 | –
293.15 K, x1 = 0.2003 | 704.87 | – | 0.546
293.15 K, x1 = 0.2997 | – | 20.13 | –
293.15 K, x1 = 0.3001 | 711.73 | – | 0.562
293.15 K, x1 = 0.4 | – | 20.54 | –
293.15 K, x1 = 0.4019 | 719.01 | – | 0.58
293.15 K, x1 = 0.5 | – | 20.99 | –
293.15 K, x1 = 0.5008 | 726.4 | – | 0.599
293.15 K, x1 = 0.6 | 734.15 | 21.52 | 0.62
293.15 K, x1 = 0.6998 | 742.32 | – | 0.644
293.15 K, x1 = 0.7001 | – | 22.1 | –
293.15 K, x1 = 0.7999 | – | 22.64 | –
293.15 K, x1 = 0.8 | 750.91 | – | 0.671
293.15 K, x1 = 0.9 | 759.88 | 23.29 | 0.701
293.15 K, x1 = 1 | 769.35 | 23.87 | 0.735
298.15 K, x1 = 0.0999 | – | 18.75 | –
298.15 K, x1 = 0.1012 | 694.22 | – | 0.506
298.15 K, x1 = 0.1999 | – | 19.1 | –
298.15 K, x1 = 0.2003 | 700.73 | – | 0.519
298.15 K, x1 = 0.2997 | – | 19.44 | –
298.15 K, x1 = 0.3001 | 707.58 | – | 0.533
298.15 K, x1 = 0.4 | – | 19.84 | –
298.15 K, x1 = 0.4019 | 714.85 | – | 0.549
298.15 K, x1 = 0.5 | – | 20.2 | –
298.15 K, x1 = 0.5008 | 722.23 | – | 0.566
298.15 K, x1 = 0.6 | 729.96 | 20.69 | 0.585
298.15 K, x1 = 0.6998 | 738.11 | – | 0.606
298.15 K, x1 = 0.7001 | – | 21.26 | –
298.15 K, x1 = 0.7999 | – | 21.81 | –
298.15 K, x1 = 0.8 | 746.67 | – | 0.631
298.15 K, x1 = 0.9 | 755.61 | 22.41 | 0.66
298.15 K, x1 = 1 | 765.05 | 23.02 | 0.692
303.15 K, x1 = 0.0999 | – | 18.32 | –
303.15 K, x1 = 0.1012 | 690.06 | – | 0.482
303.15 K, x1 = 0.1999 | – | 18.62 | –
303.15 K, x1 = 0.2003 | 696.57 | – | 0.494
303.15 K, x1 = 0.2997 | – | 18.99 | –
303.15 K, x1 = 0.3001 | 703.4 | – | 0.507
303.15 K, x1 = 0.4 | – | 19.38 | –
303.15 K, x1 = 0.4019 | 710.66 | – | 0.521
303.15 K, x1 = 0.5 | – | 19.73 | –
303.15 K, x1 = 0.5008 | 718.01 | – | 0.537
303.15 K, x1 = 0.6 | 725.72 | 20.21 | 0.554
303.15 K, x1 = 0.6998 | 733.85 | – | 0.573
303.15 K, x1 = 0.7001 | – | 20.72 | –
303.15 K, x1 = 0.7999 | – | 21.32 | –
303.15 K, x1 = 0.8 | 742.38 | – | 0.595
303.15 K, x1 = 0.9 | 751.3 | 21.92 | 0.621
303.15 K, x1 = 1 | 760.71 | 22.55 | 0.651
308.15 K, x1 = 0.0999 | – | 17.84 | –
308.15 K, x1 = 0.1012 | 685.89 | – | 0.46
308.15 K, x1 = 0.1999 | – | 18.12 | –
308.15 K, x1 = 0.2003 | 692.38 | – | 0.471
308.15 K, x1 = 0.2997 | – | 18.43 | –
308.15 K, x1 = 0.3001 | 699.2 | – | 0.483
308.15 K, x1 = 0.4 | – | 18.8 | –
308.15 K, x1 = 0.4019 | 706.44 | – | 0.496
308.15 K, x1 = 0.5 | – | 19.19 | –
308.15 K, x1 = 0.5008 | 713.78 | – | 0.51
308.15 K, x1 = 0.6 | 721.47 | 19.64 | 0.525
308.15 K, x1 = 0.6998 | 729.57 | – | 0.543
308.15 K, x1 = 0.7001 | – | 20.23 | –
308.15 K, x1 = 0.7999 | – | 20.75 | –
308.15 K, x1 = 0.8 | 738.08 | – | 0.564
308.15 K, x1 = 0.9 | 746.98 | 21.44 | 0.587
308.15 K, x1 = 1 | 756.37 | 22.12 | 0.615
313.15 K, x1 = 0.1012 | 681.69 | – | 0.44
313.15 K, x1 = 0.2003 | 688.17 | – | 0.45
313.15 K, x1 = 0.3001 | 694.97 | – | 0.461
313.15 K, x1 = 0.4019 | 702.2 | – | 0.473
313.15 K, x1 = 0.5008 | 709.52 | – | 0.486
313.15 K, x1 = 0.6 | 717.19 | – | 0.5
313.15 K, x1 = 0.6998 | 725.27 | – | 0.516
313.15 K, x1 = 0.8 | 733.75 | – | 0.535
313.15 K, x1 = 0.9 | 742.63 | – | 0.556
313.15 K, x1 = 1 | 752 | – | 0.58
318.15 K, x1 = 0.1012 | 677.34 | – | 0.422
318.15 K, x1 = 0.2003 | 683.85 | – | 0.432
318.15 K, x1 = 0.3001 | 690.64 | – | 0.443
318.15 K, x1 = 0.4019 | 697.75 | – | 0.453
318.15 K, x1 = 0.5008 | 705.13 | – | 0.465
318.15 K, x1 = 0.6 | 712.85 | – | 0.478
318.15 K, x1 = 0.6998 | 720.93 | – | 0.493
318.15 K, x1 = 0.8 | 729.36 | – | 0.509
318.15 K, x1 = 0.9 | 738.24 | – | 0.528
318.15 K, x1 = 1 | 747.58 | – | 0.549
323.15 K, x1 = 0.1012 | 673.08 | – | 0.406
323.15 K, x1 = 0.2003 | 679.58 | – | 0.415
323.15 K, x1 = 0.3001 | 686.35 | – | 0.426
323.15 K, x1 = 0.4019 | 693.44 | – | 0.435
323.15 K, x1 = 0.5008 | 700.81 | – | 0.446
323.15 K, x1 = 0.6 | 708.52 | – | 0.458
323.15 K, x1 = 0.6998 | 716.59 | – | 0.471
323.15 K, x1 = 0.8 | 725.08 | – | 0.486
323.15 K, x1 = 0.9 | 733.86 | – | 0.503
323.15 K, x1 = 1 | 743.17 | – | 0.522
333.15 K, x1 = 0.1012 | 664.46 | – | 0.378
333.15 K, x1 = 0.2003 | 670.92 | – | 0.386
333.15 K, x1 = 0.3001 | 677.66 | – | 0.395
333.15 K, x1 = 0.4019 | 684.72 | – | 0.402
333.15 K, x1 = 0.5008 | 692.07 | – | 0.411
333.15 K, x1 = 0.6 | 699.74 | – | 0.421
333.15 K, x1 = 0.6998 | 707.79 | – | 0.433
333.15 K, x1 = 0.8 | 716.25 | – | 0.445
333.15 K, x1 = 0.9 | 725.03 | – | 0.46
333.15 K, x1 = 1 | 734.29 | – | 0.476
343.15 K, x1 = 0.1012 | 655.69 | – | 0.355
343.15 K, x1 = 0.2003 | 662.12 | – | 0.361
343.15 K, x1 = 0.3001 | 668.84 | – | 0.368
343.15 K, x1 = 0.4019 | 675.87 | – | 0.375
343.15 K, x1 = 0.5008 | 683.23 | – | 0.383
343.15 K, x1 = 0.6 | 690.9 | – | 0.391
343.15 K, x1 = 0.6998 | 698.9 | – | 0.401
343.15 K, x1 = 0.8 | 707.33 | – | 0.411
343.15 K, x1 = 0.9 | 716.08 | – | 0.424
343.15 K, x1 = 1 | 725.31 | – | 0.439
